US12521425B2, “Method of liver cancer treatment with safranal-based formulations” (priority 2019, dated 2026)
Read-outs that look alike come from different tables or passages of the source.

Tests used:
[1] = test system: DEN-induced hepatic neoplasia; experiment: Serum ALT and AST in DEN-induced HCC model; format: in vivo, male Wistar rats; details: HCC rats, oral gavage 5 days a week, weeks 17-19, safranal 200 mg/kg, sorafenib 10 mg/kg, mean±SEM, n=6
Method: A modified version of the protocol described by DePeralta et al. (2016) and Schiffer et al. (2005) was used here to establish the hepatocarcinogenesis model.
On the first 15 weeks, the control PBS group was treated with 1×PBS, whereas the experimental groups were given an intraperitoneal injection (IP) of 50 mg/kg of diethylnitrosoamine (DEN, Sigma Aldrich), a widely used chemical for inducing cancer, once a week. DEN was diluted with 1×PBS. Following a one-week break (week 16), the next three weeks (weeks 17 to 19) of treatment commenced. All drugs were administrated by oral gavage. All doses were chosen according to literature (Alsaied et al., 2014; Karafakioglu et al., 2017). For the HCC+sorafenib group, the drug (Carbosynth Limited) was administered at a dose of 10 mg/kg, five days a week. For the HCC+safranal group, the drug (Sigma Aldrich) was administered at a dose of 200 mg/kg, five days a week. For the HCC+safranal+sorafenib group, the drugs were administered at a dose of 200 mg/kg safranal+10 mg/kg sorafenib, five days a week. Both safranal and sorafenib were diluted with 1×PBS and drops of Tween 80. […] After 24-hours from last treatment, the rats were euthanized by mild diethyl ether and dissected in equal conditions. Blood and whole liver were collected.
Rats were euthanized then blood was collected by decapitation and processed for later investigation. The blood was collected in collection tubes (BD Vacutainer) and serum was separated by centrifugation at 1200× g for 10 minutes. Serum was collected and flash frozen immediately then stored at −80° C. for further analysis.
Alanine Transaminase (ALT), and Aspartate Aminotransferase (AST) assays were performed using commercial kits (Abcam), according to the protocol provided. ALT and AST activities were measured spectrophotometrically using Epoch by BioTek.

HepG2 cells = experiment: SRB assay, cytotoxicity of topotecan ± safranal; format: cell-based; details: for IC50: Homo sapiens
Method: SRB assay. The effect of safranal on the cytotoxicity of the topoisomerase 1 inhibitor topotecan was tested using the sulforhodamine-B (SRB) assay as previously described. Exponentially growing HepG2 cells were seeded in 96-well plates at cell density of 1×10^4 cells per well. […] At the end of the incubation period, cells were fixed with 50% trichloroacetic acid (TCA) for 1 hours at 4° C. followed by washing, staining with SRB for 30 min followed by washing and solubilization of the stain with 10 mM Tris base (pH 10.5). The optical density (OD) at each well was measured spectrophotometrically at 564 nm with an ELISA microplate reader (Metertech. S960, USA). The IC50 values were calculated using sigmoidal concentration-response curve fitting models (Graph Pad, Prizm software).

CNC(=O)c1cc(Oc2ccc(NC(=O)Nc3ccc(Cl)c(C(F)(F)F)c3)cc2)ccn1 [sorafenib, reference compound]
ALT [1]: 13.42 ± 1.12 mU/ml | AST [1]: 11.14 ± 0.62 mU/ml

CC[C@@]1(O)C(=O)OCc2c1cc1n(c2=O)Cc2cc3c(CN(C)C)c(O)ccc3nc2-1 [Topotecan, topotecan]
sensitization factor (HepG2 cells; HepG2, incubation with safranal for 24 or 48 h before topotecan): 73 | IC50 (HepG2 cells; HepG2, HepG2, SRB, topotecan 48 h alone or after safranal 500 μM pre-incubation, read-out: IC50 of topotecan ± safranal): 118 nM | IC50 (HepG2 cells; HepG2, HepG2, incubation with safranal for 24 or 48 h before topotecan, read-out: topotecan IC50): 1.6 nM | IC50 (HepG2 cells; HepG2, HepG2, topotecan alone, read-out: topotecan IC50): 118 nM
